From publication PMC2691177 (Biochemical Journal, 2009)

Target: human lysosomal HexA/HexB
Format: biochemical
Conditions: read-out: Hex A/B, Ki

Structure (SMILES): CC(=O)N[C@H]1/C(=N/OC(=O)Nc2ccccc2)O[C@H](CO)[C@@H](O)[C@@H]1O [PUGNAc, O-(2-acetamido-2-deoxy-D-glucopyranosylidene)amino N-phenylcarbamate]
- Ki: 0.025 ± 0.0025 µM
